Data taken from ChEMBL document CHEMBL1671744 (Antimicrob Agents Chemother, 2010).
Converted amounts (≈) assume the structure as drawn. Where a SMILES comes first, the peptide text is derived from it. [ ]: non-standard residue; d: D form. The star is where a group is joined. Nphe = O=C(O)CNCc1ccccc1; OBn = c1ccc(CO*)cc1

Key:
[1] = erythrocyte
[2] = tested on: Staphylococcus aureus; assay: Antimicrobial activity against Staphylococcus aureus; assay type: functional
[3] = tested on: Escherichia coli; assay: Antimicrobial activity against Escherichia coli; assay type: functional

| MHC [1] | MIC [2] | MIC [3] | Compound |
| --- | --- | --- | --- |
| > 500 µg/mL |  |  | N=C(N)NCCC[C@H](NC(=O)[C@@H](N)Cc1c[nH]c2ccccc12)C(=O)N[C@@H](Cc1c[nH]c2ccccc12)C(=O)OCc1ccccc1 (H-Trp-Arg-Trp-OBn) |
| 25 µM | 1 µM (≈ 4.6 µg/mL) | 2 µM (≈ 9.21 µg/mL) | CC[C@H](C)[C@H](NC(=O)[C@H](CCCCN)NC(=O)[C@@H](NC(=O)[C@H](CCC(N)=O)NC(=O)[C@@H](N)CCCNC(=N)N)[C@@H](C)CC)C(=O)N[C@@H](Cc1c[nH]c2ccccc12)C(=O)N[C@@H](Cc1ccccc1)C(=O)N[C@@H](CCC(N)=O)C(=O)N[C@@H](CC(N)=O)C(=O)N[C@@H](CCCNC(=N)N)C(=O)N[C@@H](CCCNC(=N)N)C(=O)N[C@@H](CCSC)C(=O)N[C@@H](CCCCN)C(=O)N[C@@H](Cc1c[nH]c2ccccc12)C(=O)N[C@@H](CCCCN)C(=O)N[C@@H](CCCCN)C(=O)NCCCC[C@H](NC(=O)[C@H](CCCCN)NC(=O)[C@H](CCCCN)NC(=O)[C@H](Cc1c[nH]c2ccccc12)NC(=O)[C@H](CCCCN)NC(=O)[C@H](CCSC)NC(=O)[C@H](CCCNC(=N)N)NC(=O)[C@H](CCCNC(=N)N)NC(=O)[C@H](CC(N)=O)NC(=O)[C@H](CCC(N)=O)NC(=O)[C@H](Cc1ccccc1)NC(=O)[C@H](Cc1c[nH]c2ccccc12)NC(=O)[C@@H](NC(=O)[C@H](CCCCN)NC(=O)[C@@H](NC(=O)[C@H](CCC(N)=O)NC(=O)[C@@H](N)CCCNC(=N)N)[C@@H](C)CC)[C@@H](C)CC)C(N)=O |
|  | 9 µM (≈ 5.73 µg/mL) | 140 µM (≈ 89.1 µg/mL) | NC(N)=NCCC[C@H](NC(=O)[C@@H](N)Cc1c[nH]c2ccccc12)C(=O)N[C@@H](Cc1c[nH]c2ccccc12)C(=O)OCc1ccccc1 (H-Trp-Arg-Trp-OBn) |
|  |  | 1.1 µM (≈ 3.26 µg/mL) | CC[C@H](C)[C@H](NC(=O)[C@H](C)NC(=O)[C@H](CCCCN)NC(=O)[C@H](CC(C)C)NC(=O)[C@H](C)NC(=O)[C@@H](NC(=O)[C@H](Cc1cnc[nH]1)NC(=O)[C@H](CC(C)C)NC(=O)[C@@H](NC(=O)[C@@H](NC(=O)[C@H](CCCCN)NC(=O)[C@H](NC(=O)[C@H](C)NC(=O)[C@H](CO)NC(=O)[C@H](CCCCN)NC(=O)[C@H](Cc1ccccc1)NC(=O)[C@@H](NC(=O)[C@H](CCCCN)NC(=O)[C@H](CC(C)C)NC(=O)[C@H](Cc1ccccc1)NC(=O)[C@H](CO)NC(=O)[C@H](CCCCN)NC(=O)[C@H](Cc1c[nH]c2ccccc12)NC(=O)[C@H](CCCCN)NC(C)=O)[C@@H](C)O)C(C)C)[C@@H](C)O)C(C)C)[C@@H](C)O)C(=O)N[C@@H](CO)C(=O)N[C@@H](CO)C(N)=O (Ac-KWKSFLKTFKSA[dV]KTVLHTALKAISS-NH2) |
|  | 218 µM (≈ 119 µg/mL) | > 436 µM | NC(=O)[C@H](Cc1c[nH]c2ccccc12)NC(=O)[C@H](CCCN=C(N)N)NC(=O)[C@@H](N)Cc1c[nH]c2ccccc12 (H-Trp-Arg-Trp-NH2) |
| < 2.8 µM |  | 2.8 µM (≈ 8.53 µg/mL) | CC[C@H](C)[C@H](NC(=O)[C@H](C)NC(=O)[C@H](CCCCN)NC(=O)[C@H](CC(C)C)NC(=O)[C@H](C)NC(=O)[C@H](CCCCN)NC(=O)[C@H](Cc1cnc[nH]1)NC(=O)[C@H](CC(C)C)NC(=O)[C@@H](NC(=O)[C@H](CCCCN)NC(=O)[C@H](CCCCN)NC(=O)[C@H](CCCCN)NC(=O)[C@H](C)NC(=O)[C@H](CO)NC(=O)[C@H](CCCCN)NC(=O)[C@H](Cc1ccccc1)NC(=O)[C@@H](NC(=O)[C@H](CCCCN)NC(=O)[C@H](CC(C)C)NC(=O)[C@H](Cc1ccccc1)NC(=O)[C@H](CO)NC(=O)[C@H](CCCCN)NC(=O)[C@H](Cc1c[nH]c2ccccc12)NC(=O)[C@H](CCCCN)NC(C)=O)[C@@H](C)O)C(C)C)C(=O)N[C@@H](CO)C(=O)N[C@@H](CO)C(N)=O (Ac-KWKSFLKTFKSAKKKVLHKALKAISS-NH2) |
| > 200 µM | 1 µM (≈ 2.25 µg/mL) | 2 µM (≈ 4.49 µg/mL) | CC[C@H](C)[C@H](NC(=O)[C@H](CCCCN)NC(=O)[C@@H](NC(=O)[C@H](CCC(N)=O)NC(=O)[C@@H](N)CCCNC(=N)N)[C@@H](C)CC)C(=O)N[C@@H](Cc1c[nH]c2ccccc12)C(=O)N[C@@H](Cc1ccccc1)C(=O)N[C@@H](CCC(N)=O)C(=O)N[C@@H](CC(N)=O)C(=O)N[C@@H](CCCNC(=N)N)C(=O)N[C@@H](CCCNC(=N)N)C(=O)N[C@@H](CCSC)C(=O)N[C@@H](CCCCN)C(=O)N[C@@H](Cc1c[nH]c2ccccc12)C(=O)N[C@@H](CCCCN)C(=O)N[C@@H](CCCCN)C(N)=O [PENETRATIN] |
| 5.2 µM |  |  | CC[C@H](C)[C@H](NC(=O)[C@H](C)NC(=O)[C@H](CCCCN)NC(=O)[C@H](CC(C)C)NC(=O)[C@H](C)NC(=O)[C@@H](NC(=O)[C@H](Cc1c[nH]cn1)NC(=O)[C@H](CC(C)C)NC(=O)[C@@H](NC(=O)[C@@H](NC(=O)[C@H](CCCCN)NC(=O)[C@@H](NC(=O)[C@H](C)NC(=O)[C@H](CO)NC(=O)[C@H](CCCCN)NC(=O)[C@H](Cc1ccccc1)NC(=O)[C@@H](NC(=O)[C@H](CCCCN)NC(=O)[C@H](CC(C)C)NC(=O)[C@H](Cc1ccccc1)NC(=O)[C@H](CO)NC(=O)[C@H](CCCCN)NC(=O)[C@H](Cc1c[nH]c2ccccc12)NC(=O)[C@H](CCCCN)NC(C)=O)[C@@H](C)O)C(C)C)[C@@H](C)O)C(C)C)[C@@H](C)O)C(=O)N[C@@H](CO)C(=O)N[C@@H](CO)C(N)=O (Ac-KWKSFLKTFKSAVKTVLHTALKAISS-NH2) |
| 22.2 µM |  |  | CC[C@H](C)[C@H](NC(=O)[C@H](C)NC(=O)[C@H](CCCCN)NC(=O)[C@H](CC(C)C)NC(=O)[C@H](C)NC(=O)[C@@H](NC(=O)[C@H](Cc1c[nH]cn1)NC(=O)[C@H](CC(C)C)NC(=O)[C@@H](NC(=O)[C@@H](NC(=O)[C@H](CCCCN)NC(=O)[C@H](NC(=O)[C@H](C)NC(=O)[C@H](CO)NC(=O)[C@H](CCCCN)NC(=O)[C@H](Cc1ccccc1)NC(=O)[C@@H](NC(=O)[C@H](CCCCN)NC(=O)[C@H](CC(C)C)NC(=O)[C@H](Cc1ccccc1)NC(=O)[C@H](CO)NC(=O)[C@H](CCCCN)NC(=O)[C@H](Cc1c[nH]c2ccccc12)NC(=O)[C@H](CCCCN)NC(C)=O)[C@@H](C)O)C(C)C)[C@@H](C)O)C(C)C)[C@@H](C)O)C(=O)N[C@@H](CO)C(=O)N[C@@H](CO)C(N)=O (Ac-KWKSFLKTFKSA[dV]KTVLHTALKAISS-NH2) |
| > 88.6 µM |  | 0.89 µM (≈ 2.57 µg/mL) | CC[C@H](C)[C@H](NC(=O)[C@H](CCCCN)NC(=O)[C@H](CC(C)C)NC(=O)[C@H](C)NC(=O)[C@@H](NC(=O)[C@H](Cc1cnc[nH]1)NC(=O)[C@H](CC(C)C)NC(=O)[C@@H](NC(=O)[C@@H](NC(=O)[C@H](CCCCN)NC(=O)[C@@H](NC(=O)[C@H](C)NC(=O)[C@H](CO)NC(=O)[C@H](CCCCN)NC(=O)[C@H](Cc1ccccc1)NC(=O)[C@@H](NC(=O)[C@H](CCCCN)NC(=O)[C@H](CC(C)C)NC(=O)[C@H](Cc1ccccc1)NC(=O)[C@H](CO)NC(=O)[C@H](CCCCN)NC(=O)[C@H](Cc1c[nH]c2ccccc12)NC(=O)[C@H](CCCCN)NC(C)=O)[C@@H](C)O)C(C)C)[C@@H](C)O)C(C)C)[C@@H](C)O)C(=O)N[C@@H](CO)C(=O)N[C@@H](CO)C(N)=O (Ac-KWKSFLKTFKSAVKTVLHTALKISS-NH2) |
|  |  | 2.1 µM (≈ 6.22 µg/mL) | CC[C@H](C)[C@H](NC(=O)[C@H](C)NC(=O)[C@H](CCCCN)NC(=O)[C@H](CC(C)C)NC(=O)[C@H](C)NC(=O)[C@@H](NC(=O)[C@H](Cc1cnc[nH]1)NC(=O)[C@H](CC(C)C)NC(=O)[C@@H](NC(=O)[C@@H](NC(=O)[C@H](CCCCN)NC(=O)[C@@H](NC(=O)[C@H](C)NC(=O)[C@H](CO)NC(=O)[C@H](CCCCN)NC(=O)[C@H](Cc1ccccc1)NC(=O)[C@@H](NC(=O)[C@H](CCCCN)NC(=O)[C@H](CC(C)C)NC(=O)[C@H](Cc1ccccc1)NC(=O)[C@H](CO)NC(=O)[C@H](CCCCN)NC(=O)[C@H](Cc1c[nH]c2ccccc12)NC(=O)[C@H](CCCCN)NC(C)=O)[C@@H](C)O)C(C)C)[C@@H](C)O)C(C)C)[C@@H](C)O)C(=O)N[C@@H](CO)C(=O)N[C@@H](CO)C(N)=O (Ac-KWKSFLKTFKSAVKTVLHTALKAISS-NH2) |
| > 500 µg/mL |  |  | N=C(N)NCCC[C@H](NC(=O)[C@@H](N)Cc1c[nH]c2ccccc12)C(=O)N[C@@H](Cc1c[nH]c2ccccc12)C(N)=O (H-Trp-Arg-Trp-NH2) |

| Compound | MHC [1] | MIC [2] | MIC [3] |
| --- | --- | --- | --- |
| CC[C@@H](C)[C@@H](NC(=O)[C@@H](C)NC(=O)[C@@H](CCCCN)NC(=O)[C@@H](CC(C)C)NC(=O)[C@@H](C)NC(=O)[C@H](NC(=O)[C@@H](Cc1c[nH]cn1)NC(=O)[C@@H](CC(C)C)NC(=O)[C@H](NC(=O)[C@H](NC(=O)[C@@H](CCCCN)NC(=O)[C@@H](CCCCN)NC(=O)[C@@H](C)NC(=O)[C@@H](CO)NC(=O)[C@@H](CCCCN)NC(=O)[C@@H](Cc1ccccc1)NC(=O)[C@H](NC(=O)[C@@H](CCCCN)NC(=O)[C@@H](CC(C)C)NC(=O)[C@@H](Cc1ccccc1)NC(=O)[C@@H](CO)NC(=O)[C@@H](CCCCN)NC(=O)[C@@H](Cc1c[nH]c2ccccc12)NC(=O)[C@@H](CCCCN)NC(C)=O)[C@H](C)O)[C@H](C)O)C(C)C)[C@H](C)O)C(=O)N[C@H](CO)C(=O)N[C@H](CO)C(N)=O | > 88.6 µM |  |  |
| CC[C@H](C)[C@H](NC(=O)CN)C(=O)NCC(=O)N[C@@H](C)C(=O)N[C@H](C(=O)N[C@@H](CC(C)C)C(=O)N[C@@H](CCCCN)C(=O)N[C@H](C(=O)N[C@@H](CC(C)C)C(=O)N[C@H](C(=O)N[C@H](C(=O)NCC(=O)N[C@@H](CC(C)C)C(=O)N1CCC[C@H]1C(=O)N[C@@H](C)C(=O)N[C@@H](CC(C)C)C(=O)N[C@H](C(=O)N[C@@H](CO)C(=O)N[C@@H](Cc1c[nH]c2ccccc12)C(=O)N[C@H](C(=O)N[C@@H](CCCCN)C(=O)N[C@@H](CCCNC(=N)N)C(=O)N[C@@H](CCCCN)C(=O)N[C@@H](CCCNC(=N)N)C(=O)N[C@@H](CCC(N)=O)C(=O)N[C@@H](CCC(N)=O)C(N)=O)[C@@H](C)CC)[C@@H](C)CC)[C@@H](C)O)[C@@H](C)O)C(C)C)C(C)C [MELITTIN] | 0.78 µM |  |  |
| CC[C@H](C)[C@H](NC(=O)CN)C(=O)NCC(=O)N[C@@H](C)C(=O)N[C@H](C(=O)N(CC(=O)N[C@@H](CCCCN)C(=O)N[C@H](C(=O)N[C@@H](CC(C)C)C(=O)N[C@H](C(=O)N[C@H](C(=O)NCC(=O)N(CC(=O)N1CCC[C@H]1C(=O)N[C@@H](C)C(=O)N[C@@H](CC(C)C)C(=O)N[C@H](C(=O)N[C@@H](CO)C(=O)N[C@@H](Cc1c[nH]c2ccccc12)C(=O)N(CC(=O)N[C@@H](CCCCN)C(=O)N[C@@H](CCCNC(=N)N)C(=O)N[C@@H](CCCCN)C(=O)N[C@@H](CCCNC(=N)N)C(=O)N[C@@H](CCC(N)=O)C(=O)N[C@@H](CCC(N)=O)C(=O)O)Cc1ccccc1)[C@@H](C)CC)Cc1ccccc1)[C@@H](C)O)[C@@H](C)O)C(C)C)Cc1ccccc1)C(C)C [MELITTIN PEPTOID F] (H-GIGAV[Nphe]KVLTTG[Nphe]PALISW[Nphe]KRKRQQ-OH) | > 100 µM | 2 µM (≈ 5.9 µg/mL) | 4 µM (≈ 11.8 µg/mL) |
